Source: EP1095021B1, “QUINOLINE DERIVATIVES” (Active Biotech AB, priority 1998, dated 2000)

Key:
[1] = test system: acute experimental autoimmune encephalomyelitis (aEAE); test: Acute experimental autoimmune encephalomyelitis (aEAE) inhibition; format: in vivo, SJL/N female mice; conditions: for % aEAE Inhibition: percent inhibition of clinical scores compared to saline treated controls
[2] = test system: foetuses; test: Teratogenic effects in the rat; format: in vivo; conditions: for % malformed fetuses: day 8 to 14 of pregnancy
[3] = test system: Beagle Pain Syndrome (BPS); test: Beagle Pain Syndrome (BPS); format: in vivo; conditions: different breeds of beagle dogs
Procedure: The disease is reflected by clinical and laboratory manifestations justifying BPS as a model for the flu-like syndrome induced by roquinimex in man.
Beagle Pain Syndrome (BPS).
The compounds were administrated intravenously to beagle dogs. The dosage was given for five consecutive days. The dogs were evaluated for clinical and laboratory signs of the pain syndrome, e.g., fever, increased erythrocyte sedimentation rate (ESR), alkaline phosphate (AP), induction of acute phase proteins and vasculitis

| Beagle Pain Syndrome (BPS) [3] | Compound | % aEAE Inhibition ([1]; Dose 0.2 mg/kg p.o.) | % aEAE Inhibition ([1]; Dose 1 mg/kg p.o.) | % aEAE Inhibition ([1]; Dose 5 mg/kg p.o.) | % malformed fetuses ([2]; Dose 6 mg/kg p.o.) | % malformed fetuses ([2]; Dose 30 mg/kg p.o.) | inhibition of acute experimental autoimmune encephalomyelitis (aEAE) ([1]; at ≥5 mg/kg, treatment control) | % malformed fetuses ([2]; Dose 10 mg/kg p.o.) | teratogenic effect ([2]; rat) |
| --- | --- | --- | --- | --- | --- | --- | --- | --- | --- |
|  | COc1cccc2c1c(O)c(C(=O)N(C)c1ccc(C(F)(F)F)cc1)c(=O)n2C [Compound A, N-methyl-N-(4-trifluoromethyl-phenyl)-1,2-dihydro-4-hydroxy-5-methoxy-1-methyl-2-oxo-quinoline-3-carboxamide] | 66% | 86% | 99% | 4% | 2% |  |  |  |
| induce the Beagle Pain Syndrome (BPS) | CN(C(=O)c1c(O)c2ccccc2n(C)c1=O)c1ccccc1 [Compound D, N-phenyl-N-methyl-1,2-dihydro-4-hydroxy-1-methyl-2-oxo-quinoline-3-carboxamide] | 35% | 40% | 69% |  | 30% | more than 50% | 9% | teratogenic |
|  | CN(C(=O)c1c(O)c2c(Cl)cccc2n(C)c1=O)c1ccccc1 [Compound C, N-Methyl-N-phenyl-1,2-dihydro-4-hydroxy-5-chloro-1-methyl-2-oxo-quinoline-3-carboxamide] | 92% | 100% |  | 37% |  |  |  |  |
|  | CN(C(=O)c1c(O)c2c(Cl)cccc2n(C)c1=O)c1ccc(F)cc1F [Compound B, N-methyl-N-(2,4-difluorophenyl)-1,2-dihydro-4-hydroxy-5-chloro-1-methyl-2-oxo-quinoline-3-carboxamide] | 59% | 96% | 100% | 0% |  |  |  |  |
